25 molecules from patent US8916183B2, “Pesticidal compositions and processes related thereto” (priority 2012, dated 2014) can be followed below.

Type in all cases: in vivo
The test system of assay [1] is Beet Armyworm (BAW) (Spodoptera exigua). As to the kind of experiment: Bioassay on beet armyworm (BAW), 128-well diet tray assay. To be noted: Spodoptera exigua; beet armyworm, 50 μg/cm^2; read-out: % Mortality BAW 50 μg/cm^2.
Assay [2] has as its system Corn Earworm (CEW) (Helicoverpa zea). As to the kind of experiment: Bioassay on corn earworm (CEW), 128-well diet tray assay. The conditions noted are these: Helicoverpa zea; corn earworm, 50 μg/cm^2; read-out: % Mortality CEW 50 μg/cm^2. Summed up: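 Larvae in a 128-well diet tray were held at 25° C under 14:10 light-dark for five to seven days. Percent mortality was scored per well and averaged over eight wells, then reported on a rating scale.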

Assay [3] has as its system Green Peach Aphid (GPA) (Myzus persicae). In words: Bioassay on green peach aphid (GPA), foliar spray on cabbage seedlings. To be noted: green peach aphid, 200 ppm, read-out: % Mortality GPA 200 ppm. The procedure: Certain molecules disclosed in this document were tested against GPA using procedures described in the following example. In the reporting of the results, the “GPA Rating Table” was used (See Table Section).
Cabbage seedlings grown in 3-inch pots, with 2-3 small (3-5 cm) true leaves, were used as test substrate. The seedlings were infested with 20-50 GPA (wingless adult and nymph stages) one day prior to chemical application. Four pots with individual seedlings were used for each treatment. Test compounds (2 mg) were dissolved in 2 mL of acetone/methanol (1:1) solvent, forming stock solutions of 1000 ppm test compound. […] A hand-held aspirator-type sprayer was used for spraying a solution to both sides of […] leaves until runoff. Reference plants (solvent check) were sprayed with the diluent only containing 20% by volume of acetone/methanol (1:1) solvent. Treated plants were held in a holding room for three days at approximately 25° C. and ambient relative humidity (RH) prior to grading. Evaluation was conducted by counting the number of live aphids per plant under a microscope. […] Corrected % Control=100*(X−Y)/X • where • X=No. of live aphids on solvent check plants and • Y=No. of live aphids on treated plants
The results are indicated in the table entitled “Table 5: Biological Results” (See Table Section).

For `Cc1cccc(C)c1/N=C(/N/N=C/c1ccc(-c2ncn(-c3ccc(OC(F)(F)F)cc3)n2)cc1)SCc1ccccc1` [Compound 10C], the mortality at 50 µg/cm2 in assay [1] and in assay [2] was 50 to 100% throughout. For the same molecule, in assay [3], the mortality at 200 ppm stood at 0%.

On to `COc1cc(C)c(/N=C(/N/N=C/c2ccc(-c3ncn(-c4ccc(OC(F)(F)F)cc4)n3)cc2)SCC(=O)C2CCNCC2)c(C)c1` [Compound 65C], for which the mortality at 50 µg/cm2 in assay [1] and in assay [2] was 50 to 100% in each case. Moreover, the mortality at 200 ppm in assay [3] was in the range of 0 to 80%.

With `CS/C(=N\c1ccc(N(C)C)cc1)N/N=C/c1ccc(-c2ncn(-c3ccc(OC(F)(F)F)cc3)n2)cc1` [Compound 1C, N-(4-dimethylaminophenyl)-S-methyl-2-{4-[1-(4-trifluoromethoxyphenyl)-1H-[1,2,4]-triazol-3-yl]-benzylidene}-hydrazine-carbothioamide], the mortality at 50 µg/cm2 in assay [1] and in assay [2] was 50 to 100% in each case. Also, in assay [3], the mortality at 200 ppm was 0%.

Consider `CC(C)c1ccccc1N1CCCS/C1=N\N=C\c1ccc(-c2ncn(-c3ccc(C(F)(F)F)cc3)n2)cc1` [Compound 179C], for which the mortality at 50 µg/cm2 in assay [1] and in assay [2] was 50 to 100% in each case. In assay [3], the mortality at 200 ppm is 0%.

For the molecule `Cc1cccc(C)c1/N=C(/N/N=C/c1ccc(-c2ncn(-c3ccc(OC(F)(F)F)cc3)n2)cc1)SCC(=O)NCC(C)C` [Compound 55C], the mortality at 50 µg/cm2 in assay [1] and in assay [2] was 50 to 100% in each case. In assay [3], the mortality at 200 ppm worked out at 0%.

As to `COc1cc(C)c(/N=C(/N/N=C/c2ccc(-c3ncn(-c4ccc(OC(F)(F)F)cc4)n3)cc2)SCC(=O)NCCCNC(=O)OC(C)(C)C)c(C)c1` [Compound 60C], the mortality at 50 µg/cm2 in assay [1] and in assay [2] was 50 to 100% throughout. Moreover, the mortality at 200 ppm in assay [3] turned out to be 0%.

Take `Cc1cccc(C)c1/N=C(/N/N=C/c1ccc(-c2ncn(-c3ccc(OC(F)(F)F)cc3)n2)cc1)SCc1ccc(S(=O)(=O)Nc2ccc(F)cc2)cc1` [Compound 18C]: the mortality at 50 µg/cm2 in assay [1] and in assay [2] was 50 to 100% in each case. Further, the mortality at 200 ppm in assay [3] was in the range of 0 to 80%.

For the molecule `CCS/C(=N\c1c(Cl)cccc1Cl)N/N=C/c1ccc(-c2ncn(-c3ccc(OC(F)(F)F)cc3)n2)cc1` [Compound 2C], the mortality at 50 µg/cm2 in assay [1] and in assay [2] was 50 to 100% in each case. Further, the mortality at 200 ppm in assay [3] was found to be 0%.

For the molecule `Cc1cnccc1N1C(=O)CS/C1=N\N=C\c1ccc(-c2ncn(-c3ccc(OC(F)(F)F)cc3)n2)cc1` [Compound 118C], the mortality at 50 µg/cm2 in assay [1] and in assay [2] was 50 to 100% each time. Further, the mortality at 200 ppm in assay [3] amounted to 0%.

With `Cc1cccc(C)c1/N=C(/N/N=C/c1ccc(-c2ncn(-c3ccc(OC(F)(F)F)cc3)n2)cc1)SCc1ocnc1-c1ccccc1` [Compound 15C], the mortality at 50 µg/cm2 in assay [1] and in assay [2] was 50 to 100% throughout. Besides, the mortality at 200 ppm in assay [3] is 80 to 100%.

Consider `Cc1cccc(C)c1/N=C(/N/N=C/c1ccc(-c2ncn(-c3ccc(OC(F)(F)F)cc3)n2)cc1)SCc1c(F)cccc1F` [Compound 5C], for which the mortality at 50 µg/cm2 in assay [1] and in assay [2] was 50 to 100% in each case. Moreover, in assay [3], the mortality at 200 ppm is 0 to 80%.

Regarding `Cc1cccc(C)c1-n1c(-c2ccc(C(F)(F)F)cc2)cs/c1=N\N=Cc1ccc(-c2ncn(-c3ccc(OC(F)(F)F)cc3)n2)cc1` [Compound 79C], the mortality at 50 µg/cm2 in assay [1] and in assay [2] was 50 to 100% in each case. Moreover, the mortality at 200 ppm in assay [3] lay in the range of 0 to 80%.

Turning to `COc1cc(C)c(-n2c(C)cs/c2=N\N=C\c2ccc(-c3ncn(-c4ccc(OC(F)(F)F)cc4)n3)cc2)c(C)c1` [Compound 172C], the mortality at 50 µg/cm2 in assay [1] and in assay [2] was 50 to 100% throughout. In addition, the mortality at 200 ppm in assay [3] was found to be 0%.

Take `COc1cc(C)c(N2CCCS/C2=N\N=C\c2ccc(-c3ncn(-c4ccc(OC(F)(F)F)cc4)n3)cc2)c(C)c1` [Compound 181C]: the mortality at 50 µg/cm2 in assay [1] and in assay [2] was 50 to 100% in each case. The mortality at 200 ppm in assay [3] was 0 to 80%.

Regarding `FC(F)(F)Oc1ccc(-n2cnc(-c3ccc(/C=N/N=C4\SCCCN4c4c(Cl)cccc4Cl)cc3)n2)cc1` [Compound 187C], the mortality at 50 µg/cm2 in assay [1] and in assay [2] was 50 to 100% each time. The mortality at 200 ppm in assay [3] was determined as 0%.

`CC(C)c1ccccc1N1C(=NN=Cc2ccc(-c3ncn(-c4ccc(OC(F)(F)F)cc4)n3)cc2)SCC1C` (stereo in doubt) [Compound 155C, (Z)-3-(2-isopropylphenyl)-4-methyl-2-((E)-(4-(1-(4-(trifluoromethoxy)phenyl)-1H-1,2,4-triazol-3-yl)benzylidene)hydrazono)thiazolidine]: the mortality at 50 µg/cm2 in assay [1] and in assay [2] was 50 to 100% each time. Further, the mortality at 200 ppm in assay [3] worked out at 0%.

In the case of `Cc1cccc(Cl)c1N1/C(=N/N=C/c2ccc(-c3ncn(-c4ccc(OC(F)(F)F)cc4)n3)cc2)SCC1C` (stereo not drawn) [Compound 158C], the mortality at 50 µg/cm2 in assay [1] and in assay [2] was 50 to 100% in each case. The mortality at 200 ppm in assay [3] is 0 to 80%.

With `Cc1cccc(C)c1/N=C(/N/N=C/c1ccc(-c2ncn(-c3ccc(OC(F)(F)F)cc3)n2)cc1)SC/C=C/Br` [Compound 4C], the mortality at 50 µg/cm2 in assay [1] and in assay [2] was 50 to 100% throughout. Further, the mortality at 200 ppm in assay [3] was in the range of 0 to 80%.

As for `Cc1cccc(Cl)c1N1/C(=N/N=C/c2ccc(-c3ncn(-c4ccc(OC(F)(F)F)cc4)n3)cc2)SCC1(C)O` (stereo not drawn) [Compound 244C], the mortality at 50 µg/cm2 in assay [1] and in assay [2] was 50 to 100% each time. Further, the mortality at 200 ppm in assay [3] was 0%.

For the molecule `CC(C)c1ccccc1N1C(=O)CCS/C1=N\N=C\c1ccc(-c2ncn(-c3ccc(OC(F)(F)F)cc3)n2)cc1` [Compound 224C], the mortality at 50 µg/cm2 in assay [1] and in assay [2] was 50 to 100% throughout. Also, in assay [3], the mortality at 200 ppm is 0 to 80%.

Consider `Cc1cccc(C)c1/N=C(/N/N=C/c1ccc(-c2ncn(-c3ccc(OC(F)(F)F)cc3)n2)cc1)SCc1ccc(C(=O)O)cc1` [Compound 6C], for which the mortality at 50 µg/cm2 in assay [1] and in assay [2] was 50 to 100% each time. The mortality at 200 ppm in assay [3] turned out to be 0%.

With `CCc1ccccc1N1CCS/C1=N\N=C\c1ccc(-c2ncn(-c3ccc(OC(F)(F)F)cc3)n2)cc1` [Compound 133C], the mortality at 50 µg/cm2 in assay [1] and in assay [2] was 50 to 100% in each case. In assay [3], the mortality at 200 ppm was 0 to 80%.

For `CCc1ccccc1N1/C(=N/N=C/c2ccc(-c3ncn(-c4ccc(OC(F)(F)F)cc4)n3)cc2)SCC1(C)O` (stereo not drawn) [Compound 254C], the mortality at 50 µg/cm2 in assay [1] and in assay [2] was 50 to 100% throughout. The mortality at 200 ppm in assay [3] lay within 0 to 80%.

On to `CCC(C)c1ccccc1N1C(=O)CS/C1=N\N=C\c1ccc(-c2ncn(-c3ccc(OC(F)(F)F)cc3)n2)cc1` (stereo not drawn) [Compound 108C], for which the mortality at 50 µg/cm2 in assay [1] and in assay [2] was 50 to 100% each time. In assay [3], the mortality at 200 ppm amounted to 0%.

In the case of `Cc1cccc(C)c1-n1c(C)cs/c1=N\N=C\c1ccc(-c2ncn(-c3ccc(OC(F)(F)F)cc3)n2)cc1` [Compound 175C], the mortality at 50 µg/cm2 in assay [1] and in assay [2] was 50 to 100% throughout. Besides, in assay [3], the mortality at 200 ppm was found to be 0%.
